Data: patent US7501281B2, “Compositions, methods and kits related to thrombin, Notch signaling and stamatogenesis and growth of stem cells” (Maine Medical Center Research Institute, priority 2003, dated 2009)
Marks after values point to notes of the source that are not given here.

B1: sDl1: soluble non-transmembrane form of the Notch ligand Delta1 (protein)
chain: QVWSSGVFELKLQEFVNKKGLLGNRNCCRGGAGPPPCACRTFFRVCLKHYQASVSPEPPCTYGSAVTPVLGVDSFSLPDGGGADSAFSNPIRFPFGFTWPGTFSLIIEALHTDSPDDLATENPERLISRLATQRHLTVGEEWSQDLHSSGRTDLKYSYRFVCDEHYYGEGCSVFCRPRDDAFGHFTCGERGEKVCNPGWKGPYCTEPICLPGCDEQHGFCDKPGECKCRVGWQGRYCDECIRYPGCLHGTCQQPWQCNCQEGWGGLFCNQDLNYCTHHKPCKNGATCTNTGQGSYTCSCRPGYTGATCELGIDECDPSPCKNGGSCTDLENSYSCTCPPGFYGKICELSAMTCADGPCFNGGRCSDSPDGGYSCRCPVGYSGFNCEKKIDYCSSSPCSNGAKCVDLGDAYLCRCQAGFSGRHCDDNVDDCASSPCANGGTCRDGVNDFSCTCPPGYTGRNCSAPVSRCEHAPCHNGATCHERGHRYVCECARGYGGPNCQFLLPELPPGPAVVDLTEKLEGQGGPFPW
modifications: left off: small tags and cut ends
notes: soluble non-transmembrane form of the Notch ligand Delta1

Assays:
[1] = tested on: Notch-dependent CSL1 activity in full-length Jagged1 NIH 3T3 cell transfectants; experiment: Dual Luciferase Reporter Assay of CSL1-dependent transcription; type: cell-based, murine
NCSC populations = experiment: GFAP immunoreactivity as onset of glial-specific clonogenic differentiation; type: cell-based, murine
Protocol: FIG. 12A depicts an RT-PCR analysis of FGF1.A mRNA expression. Briefly, populations of murine NCSC were treated for 48 hours in Morrison media supplemented with either 7.5 nM sJ1, 5.0 nM sDl1, 10 μg/ml of α-thrombin or 5 μg/ml TRAP, and the steady-state levels of the FGF1.A mRNA were measured using RT-PCR as described elsewhere herein. […] Clonogenic differentiation assays of murine NCSC populations were assessed by maintaining the cells in Morrison media supplemented with increasing concentrations of either sJ1 or sDl1. […] Clonogenic differentiation assays of NCSC populations was assessed by maintaining the cells in Morrison media supplemented with either 7.5 nM sJ1 (▪-▪) or 5 nM sDl1 (▴-▴). The onset of gliogenic differentiation was determined by GFAP immunohistochemistry. […]
Since sJ1 enabled the retention of NCSC neurogenic potential over a 7 day period of exposure (Table 1), glial fibrillary acidic protein (GFAP) immunoreactivity was utilized as a measure of the onset of glial-specific clonogenic differentiation (Morrison et al., 1999, Cell 96:737-749; Stemple et al., 1992, Cell 71:973-985). […] As previously reported (Morrison et al., 2000, Cell 101:499-510), after 48 hours of exposure to sDl1, GFAP immunoreactive cells were detected in NCSC populations (FIG. 12C). […]

mouse NSCS populations = experiment: Clonogenic differentiation assay of NCSC, pre-incubation with Notch ligand then BMP2 challenge; type: cell-based
Protocol: Clonogenic assays were performed as described (Stemple et al., 1992, Cell 71:973-985). Briefly, populations of murine NCSC were plated at a clonal density and maintained for a maximum of 14 days in Morrison media supplemented with 15% chick embryo extract (Morrison et al., 1999, Cell 96:737-749). The resulting clones were fixed in an acetic acid:ethanol solution (2:1) and stained with antibodies against peripherin (Chemicon) to detect neurons, smooth muscle actin (Sigma) to detect myofibroblasts, and GFAP (Chemicon) to detect Schwann cells. Clones were scored based on the appearance of just one phenotypic representative. The number and percentage of clones containing neurons only (N), Schwann cells only (S), myofibroblasts only (M), N+S, N+M, N+S+M, and S+M were scored at day 14 unless otherwise stated. The production of each representative phenotype in each individual clone was also scored to complement the clonal population assay.
NCSC Retain Neurogenic capacity in the presence of sJ1. A clonogenic differentiation assay was performed using mouse NSCS populations as described previously (Kubu et al., 2002, Dev. Biol. 244:199-214; Stemple et al., 1992, Cell 71:973-985). The cells were incubated in Stemple media (Stemple et al., 1992) with or without 5 nM sDl1 or 7.5 nM sJ I for the time periods set forth in Table 1. After the initial incubation period, cells were washed and neuronal differentiation was challenged in the presence of 1 ng/ml BMP2 for an additional seven days. The resulting clones were fixed and stained for detection of neural crest markers. The data disclosed in Table 1 is presented as the percentage of glial-only, neuron-only, and neuron colonies containing either smooth muscle or glial markers as the mean±standard deviation (SD) of three experiments originating from three independent cell isolations. Note the retention of neurogenic differentiation capacity in sJ1-treated cells (*=p<0.01) compared with the sDl1-treated cells.

[2] = tested on: HEY and Deltex transcripts in NCSC populations; experiment: RT-PCR analyses of Notch down-stream effectors; type: cell-based
Source text: It is also interesting that sJ1 and sDl1 induce distinctive phenotypic outcomes. Whereas sJ1:Notch interactions enable stamatogenesis, sDl1:Notch associations lead to an immediate loss of neurogenic potential. […] Likewise, Delta1, but not Jagged1, is able to promote the in vitro development of human cord blood-derived progenitor cells with a T cell/natural killer cell phenotype (Jaleco et al., 2001, J. Exp. Med. 194:991-1002), and sJ1 is able to promote the clonal expansion of hematopoietic stem cells in vitro (Vas et al., 2004, J. Leukoc. Biol., in press). […] Thus, it appears that sJ1 and sDl1 induce different cell fate decisions in NCSC populations. […] Thus, without wishing to be bound by any particular theory, the levels of Notch signaling may be paramount in regulating the undifferentiated expansion of multipotential neural stem cells, and thrombin and/or sJ1, may be one of the key elements in this process that enable stamatogenesis to occur.

[3] = 24 hrs with 5 nM sDl1 or 7.5 nM sJ1, then 1 ng/ml BMP2 for seven days, percentage of colonies, mean±SD
[4] = 72 hrs with 7.5 nM sJ1, then 1 ng/ml BMP2 for seven days
[5] = 120 hrs with 7.5 nM sJ1, then 1 ng/ml BMP2 for seven days
[6] = 168 hrs with 7.5 nM sJ1, then 1 ng/ml BMP2 for seven days

Row | Molecule | effect on Notch-dependent CSL1 activity [1] | CSL1-dependent transcription, of the control level ([1]; maximal attenuation by thrombin) | percentage of the colony expressing the glial-specific protein GFAP (NCSC populations; day 7) [%] | CSL1-dependent transcription, of the control level ([1]; sJ1 expression (sJ1 NIH 3T3 cell transfectants)) | Glial-Only (mouse NSCS populations; [3]) [%] | Neuron-Containing (mouse NSCS populations; [3]) | Neuron-Only (mouse NSCS populations; [3]) | Glial-Only (mouse NSCS populations; [4]) [%*] | Neuron-Containing (mouse NSCS populations; [4]) [%*] | Neuron-Only (mouse NSCS populations; [4]) [%*] | Glial-Only (mouse NSCS populations; [5]) [%*] | Neuron-Containing (mouse NSCS populations; [5]) [%*] | Neuron-Only (mouse NSCS populations; [5]) [%*] | Glial-Only (mouse NSCS populations; [6]) [%*] | Neuron-Containing (mouse NSCS populations; [6]) [%] | Neuron-Only (mouse NSCS populations; [6]) [%*] | steady-state levels of HEY and Deltex transcripts [2] | time of exposure at which GFAP immunoreactive cells were detected (NCSC populations) [h]
1 | Thrombin | reduce the level of Notch-dependent CSL1 activity in a dose-dependent manner | approximately 75% |  |  |  |  |  |  |  |  |  |  |  |  |  |  |  | 
2 | sJ1: Soluble Jagged1, amino acid residues from about 1 to 1067 (SEQ ID NO:3) of full-length Jagged1 |  |  | 23±5 | approximately 25% | 0 | 71.4 ± 6.2%* | 54.4 ± 8.4%* | 0.8 ± 1.4 | 74.8 ± 16.3 | 42.8 ± 6.6 | 5.82 ± 3.4 | 52.01 ± 14.1 | 13.43 ± 6.5 | 13.3 ± 4.5 | 35.03 ± 9.1 | 6.5 ± 1.3 | suppression | 
3 | B1 |  |  |  |  | 57.8 ± 9.9 | 7.0 ± 5.7% | 0% |  |  |  |  |  |  |  |  |  | not | 48
